“Also recorded” adds a separate entry of the source.
Experiments:
Assay type in all cases: physicochemical
[1] = Physical stability upon exposure to AAC (40° C./75% RH) for 2 days, remeasured by HT-XRPD; conditions: for solid form conversion upon exposure to AAC: HT-XRPD
Method: (§1) The solvent equilibration experiments were incubated in the Crystal16™ parallel crystallization reactor at 5, 25 and 50° C. for 3 days. Up on completion of the ageing time, the solids were separated from the liquid phases, dried at ambient conditions and under vacuum, and analyzed by HT-XRPD. Afterwards, all solids were exposed to AAC (40° C./75% RH) for 2 days and remeasured by HT-XRPD. The liquids were analyzed by Karl Fisher to estimate the water content. The experimental details and results are reported in Table 9, Table 10 and Table 11.
(§2) Upon completion of the equilibration time, the solids were dried at ambient conditions and under vacuum (5 mbar/50° C./overnight) and analyzed by HT-XRPD. Afterwards, all solids were exposed to AAC (40° C./75% RH) for 2 days and remeasured by HT-XRPD.
as §2, with “Table 11: Experimental details and results of equilibration experiments performed at 50° C. for 1 week. Upon” for “Upon”, “mbar/RT/overnight)” for “mbar/50° C./overnight)”

[2] = Physical stability upon drying under vacuum, HT-XRPD
Method: as §1, §2
Thermocycling experiments were started by preparing suspensions of Form B1 in the selected anhydrous solvents. The suspensions were subjected to a temperature profile between 50 and 5° C., followed by aging at 25° C. for 72 hours. Upon completion of the aging time, the solids were separated from the liquid phases, dried at ambient conditions and under vacuum, and measured by HT-XRPD. When solutions were recovered, those were left to evaporate at ambient conditions.

[3] = Physical stability of Form B1 at three storage conditions (Example 10)
Method: Solid samples of Form B 1 was incubated at three different conditions to test physical stability: 80° C., closed vial, 24 hours; 60° C./29% RH, open vial, 48 hours; and 40° C./75% RH, open vial, 48 hours. The solids recovered after the stability studies were analyzed by HIR-XRPD, TGMS, and DSC.

[4] = Investigation under variable RH levels by DVS and XRPD
Method: The powder data were collected on D8 Advance diffractometer using Cu Kα1 radiation (1.54056 Å) with germanium monochromator at 30° C. using the SYCOS H-HOT hot humid chamber produced by Ansyco GmbH. The data were collected in the Bragg-Brentano geometry (locked coupled) from 8 to 35θ 2θ on the flat sample holder (without rotation) on solid state LynxEye detector with 0.018θ per step with 1 sec/step scan speed. After reaching demanded humidity the sample was relaxed for 5 minutes before measurement. The sample was optionally measured with 2 seconds per step and in the last measurement at RH 000 the relaxation time was elongated to 30 min.

[5] = sample recovered from thermocycling in ethyl acetate

**Q.** Which “physical stability upon exposure to AAC” value [1] does the source give for `CC(C)[C@@H](CC[C@@H](C)[C@H]1CCC2C3C(CC[C@@]21C)[C@@]1(C)CC[C@H](NCCCNCCCCN)C[C@@H]1C[C@H]3O)OS(=O)(=O)O.O=P(O)(O)O` (stereo in doubt) [Form D, squalamine phosphate] here?
**A.** physically unstable

**Q.** And the “solid form conversion upon exposure to AAC” value [1]?
**A.** converted to a mixture containing Form A1 and an unknown phase

**Q.** Which “solid form conversion in vacuum-dried solids of the hydrate screen” value ([2]; vacuum-dried, in some cases) does the source give for `CC(C)[C@@H](CC[C@@H](C)[C@H]1CC[C@H]2[C@@H]3[C@H](O)C[C@H]4C[C@@H](NCCCNCCCCN)CC[C@]4(C)[C@H]3CC[C@]12C)OS(=O)(=O)O.O=P(O)(O)O` [Form A1, squalamine phosphate] here?
**A.** converted to the mixed hydrate/solvate Form A2, or to the low-degree hydrates B1 and B2

**Q.** For `CC(C)[C@@H](CC[C@@H](C)[C@H]1CC[C@H]2[C@@H]3[C@H](O)C[C@H]4C[C@@H](NCCCNCCCCN)CC[C@]4(C)[C@H]3CC[C@]12C)OS(=O)(=O)O.O=P(O)(O)O` [Form A2, squalamine phosphate], which “physical stability upon exposure to AAC” value [1] is on record?
**A.** physically unstable

**Q.** And the “solid form conversion upon exposure to AAC” value ([1]; listed as A2)?
**A.** converted to Form A1

**Q.** With `CC(C)[C@@H](CC[C@@H](C)[C@H]1CC[C@H]2[C@@H]3[C@H](O)C[C@H]4C[C@@H](NCCCNCCCCN)CC[C@]4(C)[C@H]3CC[C@]12C)OS(=O)(=O)O.O=P(O)(O)O` [Form B1, squalamine phosphate] as the molecule, how does the “solid form conversion upon exposure to AAC” value ([1]; listed as B1) read?
**A.** converted to Form A1

**Q.** And the “RH at which the form already absorbs water, converting to Form A1” value [3]?
**A.** 29 % RH

**Q.** And the “Mass loss (%)” value ([3]; TGMS of solid recovered after 40° C./75% RH, open vial 48 h)?
**A.** 8.9%

**Q.** What about the “Mass loss (%)” value ([3]; TGMS of solid recovered after 60° C./29% RH, open vial 48 h) of the same molecule?
**A.** 9.0%

**Q.** And the “Mass loss (%)” value ([3]; TGMS of solid recovered after 80° C., closed vial, 24 h)?
**A.** 1.8%

**Q.** Which results are given for `CC(C)[C@@H](CC[C@@H](C)[C@H]1CC[C@H]2[C@@H]3[C@H](O)C[C@H]4C[C@@H](NCCCNCCCCN)CC[C@]4(C)[C@H]3CC[C@]12C)OS(=O)(=O)O.O=P(O)(O)O` [Form B2, squalamine phosphate]?
**A.** solid form conversion upon exposure to AAC ([1]; listed as B2): converted to Form A1; also recorded: conversion to Form A1; physical stability upon drying [2, 5]: not physically stable; solid form conversion upon drying [2, 5]: converted to a mixture of Forms A1 and D; physical stability upon drying ([2]; samples recovered from 1-propanol and THE): stable

**Q.** Which “behaviour on release of water at low RH levels or at high temperature” value [4] does the source give for `CC(C)[C@@H](CC[C@@H](C)[C@H]1CC[C@H]2[C@@H]3[C@H](O)C[C@H]4C[C@@H](NCCCNCCCCN)CC[C@]4(C)[C@H]3CC[C@]12C)OS(=O)(=O)O.O=P(O)(O)O` [Form C, squalamine phosphate] here?
**A.** converting to Form A1

**Q.** Which “solid form conversion upon exposure to AAC” value ([1]; listed as E) does the source give for `CC(C)[C@@H](CC[C@@H](C)[C@H]1CC[C@H]2[C@@H]3[C@H](O)C[C@H]4C[C@@H](NCCCNCCCCN)CC[C@]4(C)[C@H]3CC[C@]12C)OS(=O)(=O)O.O=P(O)(O)O` [Form E, squalamine phosphate] here?
**A.** converted to Form A1

**Q.** What about the “solid form conversion upon drying under vacuum” value ([2]; 5 mbar/50° C./overnight, solid from thermocycling in methanol) of the same molecule?
**A.** converted to Form F; also recorded: conversion to a poorly crystalline phase, classified as Form F

**Q.** And the “Physical Stability” value ([2]; upon drying at 50° C.)?
**A.** Unstable upon

**Q.** Which “solid form conversion upon exposure to AAC” value ([1]; listed as F) does the source give for `CC(C)[C@@H](CC[C@@H](C)[C@H]1CC[C@H]2[C@@H]3[C@H](O)C[C@H]4C[C@@H](NCCCNCCCCN)CC[C@]4(C)[C@H]3CC[C@]12C)OS(=O)(=O)O.O=P(O)(O)O` [Form F, squalamine phosphate] here?
**A.** converted to Form A1

From patent US20230234983A1, “SQUALAMINE CRYSTALLINE POLYMORPHS” (Enterin, Inc., priority 2022, published 2023)
